Measured values published in ChEMBL document CHEMBL1201862, “PubChem BioAssay data set” (2004).
Active and inactive are the calls of the source.

Assays:
[1] = target: T1, Endoribonuclease toxin MazF (Escherichia coli K-12, UniProt P0AE70); assay: MazEF toxin-antitoxin RNase activation – biochemical, fluorescence, single-stranded RNA substrate, SAR follow-up (AID 588603); format: functional
T1 sequence (P0AE70 whole entry): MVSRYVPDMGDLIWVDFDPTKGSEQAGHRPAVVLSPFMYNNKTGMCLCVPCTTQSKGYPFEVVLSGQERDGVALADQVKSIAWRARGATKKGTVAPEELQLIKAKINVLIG

[2] = target: T1, Endoribonuclease toxin MazF; assay: activation of MazEF endoribonuclease cleavage – biochemical, fluorescence, single-stranded RNA substrate, uHTS hits, dose response (AID 588481); format: functional
[3] = tested on: MEF; assay: SAR analysis of small molecule cytotoxicity of MazEF TA System activators in embryonic fibroblast (MEF) cells. [Related pubchem assays (depositor defined):AID504720, AID504743]; format: functional; details: Mus musculus
[4] = target: T1, Endoribonuclease toxin MazF; assay: SAR analysis of small molecule activators of the MazEF TA System via a fluorescence-based single-stranded RNase assay counterscreen. [Related pubchem assays (depositor defined):AID504720, AID504743]; format: functional
[5] = target: T1, Endoribonuclease toxin MazF; assay: substrate-only fluorescence increase artefacts – biochemical, single-stranded RNase substrate, counter-screen for MazEF activator project, dose response (AID 588502); format: functional
[6] = tested on: HEK293; assay: cells; format: functional, cell-based; details: Homo sapiens
[7] = target: Nuclear receptor subfamily 0 group B member 1 (Homo sapiens, UniProt P51843); assay: Luminescence-based cell-based high throughput dose response assay for inhibitors of the orphan nuclear receptor subfamily 0, group B, member 1 (DAX1; NR0B1). [Related pubchem assays (depositor defined):AID504766, AID504790]; format: functional
[8] = target: T2, ORF 73 (Human herpesvirus 8, UniProt O40947); assay: KSHV LANA DNA-binding disruption – biochemical, fluorescence polarization, cherry-picked samples, dose response (AID 504725); parameters: species or system Human gammaherpesvirus 8;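 also: fluorescence polarization of a labeled DNA duplex reporting LANA DNA binding; potency is for inhibitors that block LANA binding to the DNA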
T2 sequence (O40947 whole entry): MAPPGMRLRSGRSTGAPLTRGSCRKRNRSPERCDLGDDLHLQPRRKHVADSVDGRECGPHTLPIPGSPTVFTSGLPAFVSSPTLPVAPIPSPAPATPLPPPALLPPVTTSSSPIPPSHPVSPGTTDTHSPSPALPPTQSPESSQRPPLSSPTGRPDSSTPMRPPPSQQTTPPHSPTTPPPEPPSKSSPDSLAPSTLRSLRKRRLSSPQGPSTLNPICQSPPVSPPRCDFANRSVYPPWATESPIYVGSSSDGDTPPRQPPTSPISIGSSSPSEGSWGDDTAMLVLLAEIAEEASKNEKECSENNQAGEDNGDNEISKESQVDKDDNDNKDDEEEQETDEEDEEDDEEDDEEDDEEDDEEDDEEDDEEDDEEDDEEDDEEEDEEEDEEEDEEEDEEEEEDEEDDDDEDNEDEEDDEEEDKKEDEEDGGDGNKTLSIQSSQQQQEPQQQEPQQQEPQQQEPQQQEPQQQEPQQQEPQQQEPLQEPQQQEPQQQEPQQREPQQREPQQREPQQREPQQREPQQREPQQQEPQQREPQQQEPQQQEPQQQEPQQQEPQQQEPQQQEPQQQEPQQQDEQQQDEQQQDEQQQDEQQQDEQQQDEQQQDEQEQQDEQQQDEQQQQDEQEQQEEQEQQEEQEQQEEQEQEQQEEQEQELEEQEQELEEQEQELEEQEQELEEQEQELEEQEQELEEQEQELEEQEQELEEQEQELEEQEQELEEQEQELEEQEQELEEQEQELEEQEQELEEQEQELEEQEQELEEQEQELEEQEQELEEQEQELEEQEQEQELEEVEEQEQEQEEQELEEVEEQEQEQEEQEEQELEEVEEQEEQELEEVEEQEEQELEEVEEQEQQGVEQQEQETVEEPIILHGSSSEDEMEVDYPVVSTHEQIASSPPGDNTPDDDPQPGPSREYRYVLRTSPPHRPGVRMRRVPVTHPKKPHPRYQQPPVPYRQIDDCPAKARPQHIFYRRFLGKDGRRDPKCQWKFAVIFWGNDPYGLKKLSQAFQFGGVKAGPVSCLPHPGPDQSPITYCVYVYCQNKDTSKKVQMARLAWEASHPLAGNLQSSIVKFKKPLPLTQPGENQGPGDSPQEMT

[9] = target: Troponin, cardiac muscle (Homo sapiens, UniProt P19429+P45379+P63316); assay: Fluorescence-based biochemical high throughput dose response assay for activators of the calcium sensitivity of cardiac Regulated Thin Filaments (RTF). [Related pubchem assays (depositor defined):AID493008, AID493018, AID504382, AID504383]; format: protein-complex assay
[10] = target: UDP-galactopyranose mutase (Mycobacterium tuberculosis, UniProt P9WIQ1); assay: Inhibitors of Mycobacterium tuberculosis UDP-galactopyranose mutase (UGM) enzyme Measured in Biochemical System Using Plate Reader - 2105-02_Inhibitor_Dose_CherryPick_Activity. [Related pubchem assays (depositor defined):AID504439]
[11] = target: T3, Insulin-degrading enzyme (Homo sapiens, UniProt P14735); assay: recombinant IDE activation, cell-free – biochemical, fluorescence polarization, counter-screen for IDE activator project, dose response (AID 588681)
T3 sequence (P14735 whole entry): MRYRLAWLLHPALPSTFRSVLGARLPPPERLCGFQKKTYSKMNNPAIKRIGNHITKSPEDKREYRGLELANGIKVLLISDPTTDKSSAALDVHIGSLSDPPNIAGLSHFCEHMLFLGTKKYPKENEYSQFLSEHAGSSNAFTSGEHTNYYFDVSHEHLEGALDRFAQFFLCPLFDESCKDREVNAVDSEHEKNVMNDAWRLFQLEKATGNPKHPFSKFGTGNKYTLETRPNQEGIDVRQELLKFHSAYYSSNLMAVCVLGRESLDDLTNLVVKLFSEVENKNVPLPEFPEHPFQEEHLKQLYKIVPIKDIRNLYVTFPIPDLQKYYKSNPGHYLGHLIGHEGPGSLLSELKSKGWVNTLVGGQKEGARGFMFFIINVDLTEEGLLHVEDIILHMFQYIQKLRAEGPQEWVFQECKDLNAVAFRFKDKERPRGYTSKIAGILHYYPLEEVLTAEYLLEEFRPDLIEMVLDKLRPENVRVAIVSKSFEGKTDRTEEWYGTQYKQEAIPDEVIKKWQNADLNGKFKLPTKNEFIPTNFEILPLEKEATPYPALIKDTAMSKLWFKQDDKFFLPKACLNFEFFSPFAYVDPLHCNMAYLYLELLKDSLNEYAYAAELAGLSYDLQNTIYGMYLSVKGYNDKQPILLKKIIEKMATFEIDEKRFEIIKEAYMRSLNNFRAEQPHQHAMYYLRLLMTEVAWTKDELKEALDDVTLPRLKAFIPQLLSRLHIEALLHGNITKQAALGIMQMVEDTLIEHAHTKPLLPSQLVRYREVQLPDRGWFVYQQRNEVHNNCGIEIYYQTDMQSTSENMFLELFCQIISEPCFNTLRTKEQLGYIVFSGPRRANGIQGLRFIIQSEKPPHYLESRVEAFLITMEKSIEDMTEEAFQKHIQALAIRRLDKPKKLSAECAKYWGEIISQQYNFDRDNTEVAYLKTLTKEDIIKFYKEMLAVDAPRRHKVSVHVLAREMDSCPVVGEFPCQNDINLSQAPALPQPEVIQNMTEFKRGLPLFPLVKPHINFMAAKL

[12] = target: T3, Insulin-degrading enzyme; assay: cellular IDE activation of Abeta substrate cleavage – fluorescence polarization, HEK cells, dose response (AID 588439); format: functional, cell-based
[13] = tested on: HEK293; assay: membrane integrity loss in HEK cells – cell-based, fluorescence, cytotoxicity control for IDE activator project, dose response (AID 588440); format: functional; details: Homo sapiens;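 also: cytotoxicity by LDH release measuring loss of membrane integrity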
[14] = tested on: HEK293; assay: optical interference in Abeta FP readout, dose response, artefact control for IDE activator project, biochemical, fluorescence polarization (AID 588442); format: functional, cell-based; details: Homo sapiens
[15] = target: T4, Fibrinogen beta chain (Homo sapiens, UniProt P02675); assay: Fluorescence polarization-based biochemical high throughput dose response assay to identify inhibitors that disrupt the binding of a cyclic peptide (Tn6) to the fibrin proteolytic product D-Dimer and fragment E complex [DD(E )].
[16] = target: T4, Fibrinogen beta chain; assay: Fluorescence polarization-based biochemical high throughput dose response assay to identify inhibitors that disrupt the binding of a cyclic peptide (Tn7) to the fibrin proteolytic product D-Dimer and fragment E complex [DD(E )].
[17] = tested on: Candida albicans; assay: antifungal activity against resistant Candida strain – CaCi-8, fluconazole, Alamar Blue, dry powder, dose response (AID 488807); format: functional, organism-based
[18] = tested on: NIH3T3; assay: mammalian cell viability counter-check – Alamar Blue, fluconazole, dry powder, cytotoxicity control for antifungal drug resistance project, dose response (AID 488809); format: functional, cell-based; details: Mus musculus
[19] = Fluorescence polarization-based biochemical high throughput dose response assay for activators of the Protein Kinase A-R1A (PKA-R1A) complex. [Related pubchem assays (depositor defined):AID504704, AID504707, AID504799, AID504800]
[20] = Fluorescence polarization-based biochemical high throughput dose response assay for activators of the Protein Kinase A-R2B (PKA-R2B) complex. [Related pubchem assays (depositor defined):AID504700, AID504704, AID504796, AID504797]
[21] = target: Dual specificity protein phosphatase 3 (Homo sapiens, UniProt P51452); assay: SAR VHR1 Fluorescent Assay for In Vitro dose response studies Set 3. [Related pubchem assays (depositor defined):AID1654, AID1661, AID1878]; format: functional
[22] = tested on: Streptococcus sp. 'group A'; assay: Streptococcus pyogenes SK(-)GAS viability under kanamycin – luminescence, BacTiterGlo, confirmation, counter-screen for streptokinase expression inhibitor project, dose response (AID 1900); format: functional, organism-based
[23] = target: T5, Streptokinase A (Streptococcus pyogenes serotype M1, UniProt P10520); assay: viability-normalized secreted streptokinase activity reduction – plasminogen activation absorbance, OD405, dose response (AID 1914); format: functional, Streptococcus pyogenes M1 GAS;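 also: secreted streptokinase activity via plasminogen activation per viability signal from cell pellet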
T5 sequence (P10520 whole entry): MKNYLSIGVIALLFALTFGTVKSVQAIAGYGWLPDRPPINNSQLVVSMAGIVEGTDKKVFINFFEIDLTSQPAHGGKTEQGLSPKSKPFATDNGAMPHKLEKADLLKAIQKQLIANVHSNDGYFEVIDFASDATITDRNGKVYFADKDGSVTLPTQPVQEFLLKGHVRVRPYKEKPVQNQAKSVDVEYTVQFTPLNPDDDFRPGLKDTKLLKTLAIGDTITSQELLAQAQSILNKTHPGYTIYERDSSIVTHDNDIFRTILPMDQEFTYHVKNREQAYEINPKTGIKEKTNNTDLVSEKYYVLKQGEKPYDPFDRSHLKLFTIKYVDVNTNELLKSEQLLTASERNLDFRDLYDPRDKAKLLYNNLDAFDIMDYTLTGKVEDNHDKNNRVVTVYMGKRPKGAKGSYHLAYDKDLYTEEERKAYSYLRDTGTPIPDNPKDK

[24] = tested on: Streptococcus; assay: GAS UMAA2166 growth inhibition – luminescence, BacTiterGlo, counter-screen for streptokinase expression inhibitor project, dose response (AID 1915); format: functional, organism-based;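 also: potency for reduction of bacterial viability or growth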
[25] = target: Cysteine protease ATG4B (Homo sapiens, UniProt Q9Y4P1); format: functional;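 also: Fluorescence-based dose-response confirmation assay measuring inhibition of ATG4B activity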
[26] = target: Phospholipase A2 (Homo sapiens, UniProt P04054); format: functional;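 also: confirmatory dose-response counterscreen on phospholipase A2, testing hits that came from an ultra-high-throughput screen for ATG4B inhibitors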
Phospholipase A2, sequence (P04054 whole entry): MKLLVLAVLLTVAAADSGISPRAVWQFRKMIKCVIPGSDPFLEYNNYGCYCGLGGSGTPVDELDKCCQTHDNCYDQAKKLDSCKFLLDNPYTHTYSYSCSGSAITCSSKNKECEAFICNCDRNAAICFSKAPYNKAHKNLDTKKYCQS

T4 sequence (P02675 whole entry, the tested form may be a part): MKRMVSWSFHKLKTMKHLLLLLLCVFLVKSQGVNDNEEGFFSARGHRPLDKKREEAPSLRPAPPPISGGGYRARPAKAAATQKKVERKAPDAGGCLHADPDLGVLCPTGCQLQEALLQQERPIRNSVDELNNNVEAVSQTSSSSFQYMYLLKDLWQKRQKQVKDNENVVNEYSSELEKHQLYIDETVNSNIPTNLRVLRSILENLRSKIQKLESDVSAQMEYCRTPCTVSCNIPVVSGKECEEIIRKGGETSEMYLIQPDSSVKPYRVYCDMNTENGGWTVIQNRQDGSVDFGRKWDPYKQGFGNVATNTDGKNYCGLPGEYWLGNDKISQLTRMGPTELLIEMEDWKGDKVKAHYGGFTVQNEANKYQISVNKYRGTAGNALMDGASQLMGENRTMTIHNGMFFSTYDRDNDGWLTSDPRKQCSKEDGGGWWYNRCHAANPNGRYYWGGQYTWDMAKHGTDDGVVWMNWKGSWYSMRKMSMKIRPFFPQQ
UDP-galactopyranose mutase, sequence (P9WIQ1 whole entry): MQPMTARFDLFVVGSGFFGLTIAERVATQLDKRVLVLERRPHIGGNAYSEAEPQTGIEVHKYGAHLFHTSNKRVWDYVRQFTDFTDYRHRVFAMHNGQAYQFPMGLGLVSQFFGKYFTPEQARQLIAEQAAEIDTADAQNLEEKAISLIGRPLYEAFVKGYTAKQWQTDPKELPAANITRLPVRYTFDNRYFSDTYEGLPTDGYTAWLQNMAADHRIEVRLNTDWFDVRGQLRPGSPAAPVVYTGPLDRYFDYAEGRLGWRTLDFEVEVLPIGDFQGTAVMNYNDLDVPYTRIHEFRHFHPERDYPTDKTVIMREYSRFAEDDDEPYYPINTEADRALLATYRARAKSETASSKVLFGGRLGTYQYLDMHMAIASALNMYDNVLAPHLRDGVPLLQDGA
Cysteine protease ATG4B, sequence (Q9Y4P1 whole entry): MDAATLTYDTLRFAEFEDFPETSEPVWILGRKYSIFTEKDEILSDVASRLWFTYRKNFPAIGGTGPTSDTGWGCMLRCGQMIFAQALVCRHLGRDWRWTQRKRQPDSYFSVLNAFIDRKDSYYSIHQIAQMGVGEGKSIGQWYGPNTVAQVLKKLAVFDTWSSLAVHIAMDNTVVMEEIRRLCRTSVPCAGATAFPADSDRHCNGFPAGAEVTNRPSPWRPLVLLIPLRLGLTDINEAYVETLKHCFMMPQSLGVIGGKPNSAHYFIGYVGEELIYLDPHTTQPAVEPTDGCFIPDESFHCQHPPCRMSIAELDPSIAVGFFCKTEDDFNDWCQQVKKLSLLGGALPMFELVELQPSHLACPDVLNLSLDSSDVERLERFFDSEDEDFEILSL
Nuclear receptor subfamily 0 group B member 1, sequence (P51843 whole entry): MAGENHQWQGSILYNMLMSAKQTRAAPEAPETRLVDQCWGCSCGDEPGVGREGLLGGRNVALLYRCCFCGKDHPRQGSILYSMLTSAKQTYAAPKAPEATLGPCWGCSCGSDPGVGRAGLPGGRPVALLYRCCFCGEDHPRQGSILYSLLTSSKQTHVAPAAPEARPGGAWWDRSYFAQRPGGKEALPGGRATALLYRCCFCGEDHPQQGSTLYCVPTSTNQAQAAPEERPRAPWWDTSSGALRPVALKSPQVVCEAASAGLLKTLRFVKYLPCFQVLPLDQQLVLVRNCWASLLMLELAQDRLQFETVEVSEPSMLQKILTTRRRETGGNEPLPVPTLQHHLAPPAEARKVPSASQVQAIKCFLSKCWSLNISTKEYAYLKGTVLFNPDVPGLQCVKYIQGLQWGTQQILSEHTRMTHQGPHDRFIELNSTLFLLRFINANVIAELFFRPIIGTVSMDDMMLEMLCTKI
Dual specificity protein phosphatase 3, sequence (P51452 whole entry): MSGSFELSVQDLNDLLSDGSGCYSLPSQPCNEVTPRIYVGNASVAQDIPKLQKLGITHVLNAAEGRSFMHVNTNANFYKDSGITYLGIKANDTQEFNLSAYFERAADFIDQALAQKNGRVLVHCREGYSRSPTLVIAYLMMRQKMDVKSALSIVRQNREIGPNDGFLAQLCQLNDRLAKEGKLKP

CCN1C(C)=C(C)S/C1=C1\SC(=S)N(C2CCCCC2)C1=O
EC50 [1]: 22.4 µM (inactive)
EC50 [2]: 29.1 µM (inactive)
CC50 [3]: > 99 µM (inactive)
EC50 [4]: > 99 µM (inactive)
EC50 [5]: > 99 µM (inactive)

COc1ccc(N2C(=O)C3C(c4ccc(OC)cc4O)NC(Cc4ccccc4)(C(=O)O)C3C2=O)cc1 (stereo unspecified)
IC50 [6]: > 67.5 µM (inactive)
IC50 [7]: > 67.5 µM (inactive)

Oc1ccc2ccc3cccc[n+]3c2c1
AC50 [8]: 1.61 µM (active)
EC50 [9]: 1.21 µM (active)
AC50 [10]: 3.84 µM (active)
EC50 [11]: > 54.7 µM (inactive)
EC50 [12]: > 54.7 µM (inactive)
IC50 [13]: > 89.2 µM (inactive)
EC50 [14]: > 54.7 µM (inactive)
IC50 [15]: > 83.3 µM (inactive)
IC50 [16]: > 9.26 µM (active)

CC1CCN(C(=O)Cn2c3ccc(F)cc3c3nc4n(c(=O)c32)CCCS4)CC1
AC50 [17]: 2.96 µM (active)
AC50 [18]: 41.8 µM (active)

Nc1nc(O)c2nc(Br)n([C@@H]3O[C@@H]4COP(=O)(O)O[C@H]4[C@H]3O)c2n1
EC50 [19]: 7.83 µM (active)
EC50 [20]: 2.15 µM (active)

COc1ccc(C(=O)Nc2cc(C)nn2-c2nc3ccccc3s2)cc1
IC50 [21]: 36.3 µM (active)

COc1cc(/C=C2\S/C(=N\c3ccccc3)N(CCc3c[nH]c4ccccc34)C2=O)ccc1OC(C)C(=O)O (stereo unspecified)
EC50 [22]: 943 nM (active)
EC50 [23]: 4.12 µM (active)
EC50 [24]: 11.5 µM (active)
IC50 [25]: 8.13 µM (active)
IC50 [26]: 5.47 µM (active)
